Data: patent US11891387B2, “Monoacylglycerol lipase modulators” (Janssen Pharmaceutica NV, priority 2020, dated 2024)

What follows are compounds tested against human MGL from HeLa cells (Homo sapiens (Human), UniProt Q99685) (assay: MGL in vitro activity assay: cleavage of [glycerol-1,3-3H]-oleyl glycerol, activated carbon filtration). Details: 300 nM [Glycerol-1,3-3H]-oleyl glycerol, endogenously expressed MGL from HeLa cells, one hour incubation.
Type: biochemical
Procedure, shortened: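 Endogenous human MGL from HeLa cells or homogenates was incubated with compound and 300 nM [glycerol-1,3-3H]-oleyl glycerol for one hour. Released [3H]-glycerol passing an activated carbon filter was counted as the measure of activity. Screening used 10 μM compound, with IC50 top concentration set empirically.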

Chain of human MGL from HeLa cells (Q99685 whole entry): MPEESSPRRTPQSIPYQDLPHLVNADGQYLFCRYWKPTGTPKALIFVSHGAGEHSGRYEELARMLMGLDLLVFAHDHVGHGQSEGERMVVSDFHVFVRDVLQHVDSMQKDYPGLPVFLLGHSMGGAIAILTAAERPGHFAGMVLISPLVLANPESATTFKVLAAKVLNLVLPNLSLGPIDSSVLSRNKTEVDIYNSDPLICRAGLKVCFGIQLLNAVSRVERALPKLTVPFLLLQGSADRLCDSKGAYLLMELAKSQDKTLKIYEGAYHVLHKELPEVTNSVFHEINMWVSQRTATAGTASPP

Question: For `C[C@H]1c2nn(C)c(-c3ccnn3CC3CC3)c2CCN1C(=O)c1ccc2ncccc2c1` [Example 71, (S)-(3-(1-(Cyclopropylmethyl)-1H-pyrazol-5-yl)-2,7-dimethyl-2,4,5,7-tetrahydro-6H-pyrazolo[3,4-c]pyridin-6-yl)(quinolin-6-yl)methanone], which IC50 is on record?
Answer: 7.3 µM

Question: With `Cn1nc(C(F)(F)F)cc1-c1c2c(nn1C)[C@@H]1CCC[C@H](C2)N1C(=O)c1noc2ccccc12` [Example 84, Benzo[d]isoxazol-3-yl((5R,9S)-2-methyl-3-(1-methyl-3-(trifluoromethyl)-1H-pyrazol-5-yl)-4,5,6,7,8,9-hexahydro-2H-5,9-epiminocycloocta[c]pyrazol-10-yl)methanone] as the compound, how does the IC50 read?
Answer: 0.0051 µM

Question: How did the IC50 turn out when `C[C@H]1c2nn(C)c(-c3cc(C(F)(F)F)nn3C)c2CCN1C(=O)c1cnc2ncsc2c1` [Example 123, (S)-(2,7-Dimethyl-3-(1-methyl-3-(trifluoromethyl)-1H-pyrazol-5-yl)-2,4,5,7-tetrahydro-6H-pyrazolo[3,4-c]pyridin-6-yl)(thiazolo[4,5-b]pyridin-6-yl)methanone] was run?
Answer: 0.95 µM

Question: How did the IC50 turn out when `Cc1ccc2c(F)c(C(=O)N3CCc4c(nn(C)c4-c4cc(C(F)(F)F)nn4C)[C@@H]3C)ccc2n1` [Example 90, (S)-(2,7-dimethyl-3-(1-methyl-3-(trifluoromethyl)-1H-pyrazol-5-yl)-2,4,5,7-tetrahydro-6H-pyrazolo[3,4-c]pyridin-6-yl)(5-fluoro-2-methylquinolin-6-yl)methanone] was run?
Answer: 0.23 µM

Question: `Cc1ccc2nc(C)cc(C(=O)N3CCc4c(nn(C)c4-c4cc(C(F)(F)F)nn4C)[C@@H]3C)c2c1` [Example 25, (S)-(2,7-Dimethyl-3-(1-methyl-3-(trifluoromethyl)-1H-pyrazol-5-yl)-2,4,5,7-tetrahydro-6H-pyrazolo[3,4-c]pyridin-6-yl)(2,6-dimethylquinolin-4-yl)methanone] was tested. Which IC50 did it give?
Answer: 0.09 µM

Question: Which IC50 does the source give for `C[C@H]1c2nn(C)c(-c3cc(C(F)(F)F)nn3C)c2CCN1C(=O)c1ccnc2c1ccn2CC(F)(F)F` [Example 12, (S)-(2,7-Dimethyl-3-(1-methyl-3-(trifluoromethyl)-1H-pyrazol-5-yl)-2,4,5,7-tetrahydro-6H-pyrazolo[3,4-c]pyridin-6-yl)(1-(2,2,2-trifluoroethyl)-1H-pyrrolo[2,3-b]pyridin-4-yl)methanone] here?
Answer: 0.1 µM

Question: For `C[C@H]1c2nn(C)c(-c3cc(C(F)(F)F)nn3C)c2CCN1C(=O)c1ccccc1C(F)(F)F` [Example 29, (S)-(2,7-Dimethyl-3-(1-methyl-3-(trifluoromethyl)-1H-pyrazol-5-yl)-2,4,5,7-tetrahydro-6H-pyrazolo[3,4-c]pyridin-6-yl)(2-(trifluoromethyl)phenyl)methanone], which IC50 is on record?
Answer: 0.15 µM

Question: `Cc1cc(C(=O)N2[C@@H]3CCC[C@H]2c2nn(C)c(-c4cc(C(F)(F)F)n(C)n4)c2C3)c2cc(F)ccc2n1` [Example 88, (6-Fluoro-2-methylquinolin-4-yl)((5R,9S)-2-methyl-3-(1-methyl-5-(trifluoromethyl)-1H-pyrazol-3-yl)-4,5,6,7,8,9-hexahydro-2H-5,9-epiminocycloocta[c]pyrazol-10-yl)methanone] was tested. Which IC50 did it give?
Answer: 0.0066 µM

Question: `C[C@H]1c2nn(C)c(-c3cc(C(F)(F)F)nn3C)c2CCN1C(=O)c1ccc2c(c1)OCCC2` [Example 55, (S)-Chroman-7-yl(2,7-dimethyl-3-(1-methyl-3-(trifluoromethyl)-1H-pyrazol-5-yl)-2,4,5,7-tetrahydro-6H-pyrazolo[3,4-c]pyridin-6-yl)methanone] was tested. Which IC50 did it give?
Answer: 0.11 µM

Question: Which IC50 does the source give for `COc1cccc(C(=O)N2CCc3c(nn(C)c3-c3cc(C(F)(F)F)nn3C)[C@@H]2C)c1` [Example 38, (S)-(2,7-Dimethyl-3-(1-methyl-3-(trifluoromethyl)-1H-pyrazol-5-yl)-2,4,5,7-tetrahydro-6H-pyrazolo[3,4-c]pyridin-6-yl)(3-methoxyphenyl)methanone] here?
Answer: 0.073 µM

Question: With `C[C@H]1c2nn(C)c(-c3cc(C(F)(F)F)nn3C)c2CCN1C(=O)c1cc2scnc2cn1` [Example 122, (S)-(2,7-Dimethyl-3-(1-methyl-3-(trifluoromethyl)-1H-pyrazol-5-yl)-2,4,5,7-tetrahydro-6H-pyrazolo[3,4-c]pyridin-6-yl)(thiazolo[4,5-c]pyridin-6-yl)methanone] as the compound, how does the IC50 read?
Answer: 0.26 µM

Question: How did the IC50 turn out when `COc1ccc(C(=O)N2CCc3c(nn(C)c3-c3cc(C(F)(F)F)nn3C)[C@@H]2C)c2cccnc12` [Example 14, (S)-(2,7-Dimethyl-3-(1-methyl-3-(trifluoromethyl)-1H-pyrazol-5-yl)-2,4,5,7-tetrahydro-6H-pyrazolo[3,4-c]pyridin-6-yl)(8-methoxyquinolin-5-yl)methanone] was run?
Answer: 0.015 µM

Question: How did the IC50 turn out when `Cc1cc(C)c2cc(C(=O)N3CCc4c(nn(C)c4-c4cc(C(F)(F)F)nn4C)[C@@H]3C)ccc2n1` [Example 94, (S)-(2,7-Dimethyl-3-(1-methyl-3-(trifluoromethyl)-1H-pyrazol-5-yl)-2,4,5,7-tetrahydro-6H-pyrazolo[3,4-c]pyridin-6-yl)(2,4-dimethylquinolin-6-yl)methanone] was run?
Answer: 0.039 µM

Question: `C[C@H]1c2nn(C)c(-c3cc(C(F)(F)F)nn3C)c2CCN1C(=O)c1cnc2cc(F)cc(F)c2c1` [Example 18, (S)-(5,7-Difluoroquinolin-3-yl)(2,7-dimethyl-3-(1-methyl-3-(trifluoromethyl)-1H-pyrazol-5-yl)-2,4,5,7-tetrahydro-6H-pyrazolo[3,4-c]pyridin-6-yl)methanone] was tested. Which IC50 did it give?
Answer: 0.36 µM

Question: Which IC50 does the source give for `C[C@H]1c2nn(C)c(-c3cc(C(F)(F)F)nn3C)c2CCN1C(=O)c1cccc2nn(C)cc12` [Example 23, (S)-(2,7-Dimethyl-3-(1-methyl-3-(trifluoromethyl)-1H-pyrazol-5-yl)-2,4,5,7-tetrahydro-6H-pyrazolo[3,4-c]pyridin-6-yl)(2-methyl-2H-indazol-4-yl)methanone] here?
Answer: 0.084 µM

Question: With `C[C@H]1c2nn(C)c(-c3cnn(C)c3C(F)(F)F)c2CCN1C(=O)c1ccnc2c1cnn2C` [Example 32, (S)-(2,7-Dimethyl-3-(1-methyl-5-(trifluoromethyl)-1H-pyrazol-4-yl)-2,4,5,7-tetrahydro-6H-pyrazolo[3,4-c]pyridin-6-yl)(1-methyl-1H-pyrazolo[3,4-b]pyridin-4-yl)methanone] as the compound, how does the IC50 read?
Answer: 4.56 µM

Question: Which IC50 does the source give for `COc1nn(C)cc1-c1c2c(nn1C)[C@H](C)N(C(=O)c1ccc3ncccc3c1)CC2` [Example 16, (S)-(3-(3-Methoxy-1-methyl-1H-pyrazol-4-yl)-2,7-dimethyl-2,4,5,7-tetrahydro-6H-pyrazolo[3,4-c]pyridin-6-yl)(quinolin-6-yl)methanone] here?
Answer: 0.37 µM

Question: For `C[C@H]1c2nn(C)c(-c3cnn(C(F)(F)F)c3)c2CCN1C(=O)c1ccc2ncccc2c1` [Example 64, (S)-(2,7-Dimethyl-3-(1-(trifluoromethyl)-1H-pyrazol-4-yl)-2,4,5,7-tetrahydro-6H-pyrazolo[3,4-c]pyridin-6-yl)(quinolin-6-yl)methanone], which IC50 is on record?
Answer: 0.079 µM

Question: Which IC50 does the source give for `Cc1ccc2c(C(=O)N3CCc4c(nn(C)c4-c4cc(C(F)(F)F)nn4C)[C@@H]3C)cccc2n1` [Example 1, (S)-(2,7-Dimethyl-3-(1-methyl-3-(trifluoromethyl)-1H-pyrazol-5-yl)-2,4,5,7-tetrahydro-6H-pyrazolo[3,4-c]pyridin-6-yl)(2-methylquinolin-5-yl)methanone] here?
Answer: 0.035 µM

Question: `Cc1ccc(C(=O)N2CCc3c(nn(C)c3-c3cc(C(F)(F)F)nn3C)[C@@H]2C)c(OC(F)(F)F)c1` [Example 110, (S)-(2,7-Dimethyl-3-(1-methyl-3-(trifluoromethyl)-1H-pyrazol-5-yl)-2,4,5,7-tetrahydro-6H-pyrazolo[3,4-c]pyridin-6-yl)(4-methyl-2-(trifluoromethoxy)phenyl)methanone] was tested. Which IC50 did it give?
Answer: 0.65 µM

Question: Which IC50 does the source give for `COc1ccc2nc(C)cc(C(=O)N3CCc4c(nn(C)c4-c4cc(C(F)(F)F)nn4C)[C@@H]3C)c2c1` [Example 26, (S)-(2,7-Dimethyl-3-(1-methyl-3-(trifluoromethyl)-1H-pyrazol-5-yl)-2,4,5,7-tetrahydro-6H-pyrazolo[3,4-c]pyridin-6-yl)(6-methoxy-2-methylquinolin-4-yl)methanone] here?
Answer: 0.88 µM

Question: How did the IC50 turn out when `C[C@H]1c2nn(C)c(-c3cc(C(F)(F)F)nn3C)c2CCN1C(=O)c1ccc(OC(F)(F)F)cc1Cl` [Example 113, (S)-(2-Chloro-4-(trifluoromethoxy)phenyl)(2,7-dimethyl-3-(1-methyl-3-(trifluoromethyl)-1H-pyrazol-5-yl)-2,4,5,7-tetrahydro-6H-pyrazolo[3,4-c]pyridin-6-yl)methanone] was run?
Answer: 9.9 µM

Question: How did the IC50 turn out when `COc1cccc(C(=O)N2CCc3c(nn(C)c3-c3cc(C(F)(F)F)nn3C)[C@@H]2C)c1Cl` [Example 35, (S)-(2-Chloro-3-methoxyphenyl)(2,7-dimethyl-3-(1-methyl-3-(trifluoromethyl)-1H-pyrazol-5-yl)-2,4,5,7-tetrahydro-6H-pyrazolo[3,4-c]pyridin-6-yl)methanone] was run?
Answer: 0.025 µM

Question: `Cn1nc(C(F)(F)F)cc1-c1c2c(nn1C)[C@@H]1CCC[C@H](C2)N1C(=O)c1ccc2ncccc2c1` [Example 80, ((5R,9S)-2-Methyl-3-(1-methyl-3-(trifluoromethyl)-1H-pyrazol-5-yl)-4,5,6,7,8,9-hexahydro-2H-5,9-epiminocycloocta[c]pyrazol-10-yl)(quinolin-6-yl)methanone] was tested. Which IC50 did it give?
Answer: 0.022 µM

Question: `Cn1nc(-c2c3c(nn2C)[C@@H]2CCC[C@H](C3)N2C(=O)c2ccc3ncccc3c2)cc1C(F)(F)F` [Example 87, ((5R,9S)-2-Methyl-3-(1-methyl-5-(trifluoromethyl)-1H-pyrazol-3-yl)-4,5,6,7,8,9-hexahydro-2H-5,9-epiminocycloocta[c]pyrazol-10-yl)(quinolin-6-yl)methanone] was tested. Which IC50 did it give?
Answer: 0.017 µM

Question: How did the IC50 turn out when `COc1cccc(C(=O)N2[C@@H]3CC[C@H]2c2nn(C)c(-c4cc(C(F)(F)F)nn4C)c2C3)c1C` [Example 89, (3-Methoxy-2-methylphenyl)((5R,8S)-2-methyl-3-(1-methyl-3-(trifluoromethyl)-1H-pyrazol-5-yl)-2,4,5,6,7,8-hexahydro-5,8-epiminocyclohepta[c]pyrazol-9-yl)methanone] was run?
Answer: 0.066 µM
